Entries after “also recorded” stand apart in the source; their conditions may differ.
What was measured:
[1] = test system: Candida albicans; conditions: fungus Candida albicans; cited from earlier work
[2] = test system: environmental microbes; test: Rehydrated tablet stability testing (daily scent, clarity, particulates, pressure; pass/fail); conditions: as preservative in Comparative Examples 3 and 4
Source text: The key goals for the present invention, given that it is intended to be used for bottles that will be refilled many times to reduce plastic waste, are for the rehydrated formula to: • (a) be stable once rehydrated, meaning that the solution would no discernible microbial growth over a multi-month period of time and would maintain its physical characteristics, and • (b) work within an acceptable manufacturing process (both physically and in terms of cost).
In terms of physical characteristics measured, once the test tablets had been rehydrated, several observables were tracked each day such as scent, clarity, presence of particulates and pressure.
Scent was measured by comparing the scent each day to the original scent of an initially rehydrated bottle. When microbial activity is present it can create compounds, which add a distinctly unpleasant odor to the compositions. 2 Given the sensitivity of the human nose to such compounds, this would be a clear aesthetic failure for the product even if overall microbial growth remained below a level that could be harmful or otherwise impact use.
Regarding clarity, initially rehydrated solutions are completely transparent. […]
Once the initial dissolution process is complete, a rehydrated solution should contain no free-floating particulates. The appearance of any particles within the solution was recorded and visually evaluated. […]

[3] = at comparable concentrations; cited from earlier work
[4] = test system: bacteria; test: Inhibitory effect of IPBC against bacteria tested; type: cell-based
Source text: (§1) In Examples 1 and 2, the concentration of IPBC was in the 100 ppm to 160 ppm range. This range inhibits the growth of all three categories of microbes. An amount of 100 ppm is a minimum safe amount to inhibit most types of microbial growth.

[5] = test system: algae; conditions: cited from earlier work
[6] = test system: mold/mildew/yeast/fungi; conditions: cited from earlier work
[7] = test system: fungus and yeast; test: Growth inhibition of fungus and yeast by IPBC; type: cell-based; conditions: 100 ppm to 160 ppm
Source text: as §1

Row | Molecule | MIC [1] | effectiveness in stability testing (preservation) [2] | comedogenicity [3] | concentration with inhibitory effect against most bacteria tested [4] [ppm] | minimum inhibitory concentration (MIC) [5] [ppm] | minimum inhibitory concentration (MIC) [6] [ppm] | inhibition of growth of fungus and yeast [7]
1 | O=C([O-])c1ccccc1.[Na+] [sodium benzoate, reference compound] | about 2500 ppm |  |  |  |  |  | 
2 | benzalkonium chloride [BKC] |  | somewhat effective; also recorded: better preservation than other non-IPBC-containing compositions tested |  |  |  |  | 
3 | iodopropynyl butylcarbamate [IPBC] | about 8 ppm |  | noncomedogenic | 100 | ≤ 50 | ≤ 10 | significantly inhibits

— US20240041708A1, “DEHYDRATED SOAP AND CLEANER TABLET COMPOSITION” (HAPPY GO LUCKY LLC, priority 2022, published 2024)
